T/C data for 13 compounds are collected here from PubChem BioAssay AID248 (DTP/NCI, 2004).

Values joined by “and” are separate entries in the source; they are usually repeats but may differ in a detail not shown here. Identical values can stand only once. Toxic doses and inconclusive results are not listed.

For the test, the system named is L1210 leukemia ip in BDF1 mice, survival T/C. In words: NCI In Vivo Anticancer Drug Screen. Data for tumor model L1210 Leukemia (intraperitoneal) in B6D2F1 (BDF1) mice. Conditions: endpoint: mean survival time, higher = longer survival. The method in brief:
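In this screen, tumor-bearing mice given compound are compared to those given vehicle, and their survival values are reported as a treated-to-control quotient.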

[1] abbreviates: dose: 50.0 mg/kg/injection, schedule: Q01DX009 (ip), vehicle: saline with Tween-80.
[2] abbreviates: dose: 100.0 mg/kg/injection, schedule: Q01DX009 (ip), vehicle: saline with Tween-80.
Setting [3] is: dose: 100.0 mg/kg/injection, schedule: Q04DX003 (ip), vehicle: saline with Tween-80.
Setting [4] is: dose: 200.0 mg/kg/injection, schedule: Q01DX009 (ip), vehicle: saline with Tween-80.

As to `O=C(N/N=C\c1ccc(N(CCCl)CCCl)cc1)c1cccnc1`, the T/C runs as follows: (dose: 12.5 mg/kg/injection, schedule: Q01DX Z (ip), vehicle: carboxymethylcellulose (CMC)) 96 % of control; (dose: 25.0 mg/kg/injection, schedule: Q01DX Z (ip), vehicle: carboxymethylcellulose (CMC)) 93 % of control and 94 % of control; (dose: 50.0 mg/kg/injection, schedule: Q01DX Z (ip), vehicle: carboxymethylcellulose (CMC)) 94 % of control and 100 % of control; (dose: 100.0 mg/kg/injection, schedule: Q01DX Z (ip), vehicle: carboxymethylcellulose (CMC)) 97 % of control and 104 % of control; (dose: 200.0 mg/kg/injection, schedule: Q01DX Z (ip), vehicle: carboxymethylcellulose (CMC)) 107 % of control and 111 % of control.

On to `O=C1C=CCCCC1`, for which the T/C is 95 % of control (dose: 25.0 mg/kg/injection, schedule: Q01DX009 (ip), vehicle: saline with Tween-80); 101 % of control under setting [1]; 103 % of control under setting [2]; 103 % of control under setting [3].

As to `CC(=O)OC(C#N)c1ccco1` (stereo not given), the T/C by setting is: (dose: 3.0 mg/kg/injection, schedule: Q01DX009 (ip), vehicle: saline with Tween-80) 91 % of control; (dose: 3.0 mg/kg/injection, schedule: Q04DX003 (ip), vehicle: saline with Tween-80) 105 % of control; (dose: 6.0 mg/kg/injection, schedule: Q01DX009 (ip), vehicle: saline with Tween-80) 100 % of control; (dose: 6.0 mg/kg/injection, schedule: Q04DX003 (ip), vehicle: saline with Tween-80) 101 % of control; (dose: 12.0 mg/kg/injection, schedule: Q01DX009 (ip), vehicle: saline with Tween-80) 91 % of control; (dose: 12.0 mg/kg/injection, schedule: Q04DX003 (ip), vehicle: saline with Tween-80) 101 % of control. Further, the T/C (dose: 12.5 mg/kg/injection, schedule: Q04DX003 (ip), vehicle: saline with Tween-80) is 89 % of control.

Turning to `COc1ccccc1-n1c(O)c(N=Nc2ccc(Br)cc2)c(=O)n(-c2ccc(I)cc2)c1=S`, the T/C runs as follows: (dose: 50.0 mg/kg/injection, schedule: Q01DX001 (ip), vehicle: Klucel (hydroxypropylcellulose) (HPC)) 102 % of control; (dose: 100.0 mg/kg/injection, schedule: Q01DX001 (ip), vehicle: Klucel (hydroxypropylcellulose) (HPC)) 112 % of control; (dose: 200.0 mg/kg/injection, schedule: Q01DX001 (ip), vehicle: Klucel (hydroxypropylcellulose) (HPC)) 102 % of control.

As for `O=C(O)c1cccc2c1OCO2`, the T/C is, setting by setting: under setting [1], 112 % of control; under setting [2], 98 % of control; (dose: 100.0 mg/kg/injection, schedule: Q04DX002 (ip), vehicle: saline with Tween-80) 103 % of control; under setting [4], 98 % of control; (dose: 200.0 mg/kg/injection, schedule: Q04DX002 (ip), vehicle: saline with Tween-80) 95 % of control.

As to `CC(CN1c2ccccc2Sc2ccccc21)[N+](C)(C)C` (stereo not given), for the setting “dose: 100.0 mg/kg/injection, schedule: Q01DX001 (ip), vehicle: saline”, the T/C is 88 % of control.

For the compound `O=C(NCCCl)NC1CCc2ccccc21` (stereo not given), the T/C runs as follows: (dose: 20.0 mg/kg/injection, schedule: Q04DX003 (ip), vehicle: Klucel (hydroxypropylcellulose) (HPC)) 92 % of control; (dose: 40.0 mg/kg/injection, schedule: Q04DX003 (ip), vehicle: Klucel (hydroxypropylcellulose) (HPC)) 92 % of control; (dose: 80.0 mg/kg/injection, schedule: Q04DX003 (ip), vehicle: Klucel (hydroxypropylcellulose) (HPC)) 91 % of control; (dose: 100.0 mg/kg/injection, schedule: Q04DX003 (ip), vehicle: Klucel (hydroxypropylcellulose) (HPC)) 95 % of control; (dose: 200.0 mg/kg/injection, schedule: Q04DX003 (ip), vehicle: Klucel (hydroxypropylcellulose) (HPC)) 106 % of control.

For the compound `C/C(=N/NC(N)=S)c1ccncc1`, the T/C is, setting by setting: (dose: 2.5 mg/kg/injection, schedule: Q01DX009 (ip), vehicle: Klucel (hydroxypropylcellulose) (HPC)) 106 % of control; (dose: 5.0 mg/kg/injection, schedule: Q01DX009 (ip), vehicle: Klucel (hydroxypropylcellulose) (HPC)) 103 % of control; (dose: 10.0 mg/kg/injection, schedule: Q01DX009 (ip), vehicle: Klucel (hydroxypropylcellulose) (HPC)) 94 % of control.

`c1ccc(-c2nc(N3CCOCC3)nc3ccccc23)cc1`: the T/C is 94 % of control under setting [2] and 90 % of control under setting [4].

As to `[Cl][Pt+2][Cl].[NH-]C1CCC1.[NH-]C1CCC1`, the T/C by setting is: (dose: 1.0 mg/kg/injection, schedule: Q01DX001 (ip), vehicle: saline with Tween-80) 95 % of control; (dose: 1.0 mg/kg/injection, schedule: Q01DX009 (ip), vehicle: saline with Tween-80) 108 % of control; (dose: 2.0 mg/kg/injection, schedule: Q01DX001 (ip), vehicle: saline with Tween-80) 98 % of control; (dose: 2.0 mg/kg/injection, schedule: Q01DX009 (ip), vehicle: saline with Tween-80) 115 % of control; (dose: 4.0 mg/kg/injection, schedule: Q01DX001 (ip), vehicle: saline with Tween-80) 109 % of control; (dose: 5.0 mg/kg/injection, schedule: Q04DX003 (ip), vehicle: saline) 110 % of control. For the same compound, the T/C runs as follows: (dose: 6.25 mg/kg/injection, schedule: Q04DX003 (ip), vehicle: Klucel (hydroxypropylcellulose) (HPC)) 103 % of control; (dose: 6.25 mg/kg/injection, schedule: Q04DX003 (ip), vehicle: saline with Tween-80) 116 % of control; (dose: 8.0 mg/kg/injection, schedule: Q01DX009 (ip), vehicle: saline with Tween-80) 157 % of control; (dose: 10.0 mg/kg/injection, schedule: Q04DX003 (ip), vehicle: saline) 123 % of control; (dose: 12.5 mg/kg/injection, schedule: Q04DX003 (ip), vehicle: Klucel (hydroxypropylcellulose) (HPC)) 106 % of control; (dose: 16.0 mg/kg/injection, schedule: Q01DX009 (ip), vehicle: saline with Tween-80) 214 % of control. In addition, the T/C is 110 % of control (dose: 25.0 mg/kg/injection, schedule: Q04DX003 (ip), vehicle: Klucel (hydroxypropylcellulose) (HPC)); 154 % of control (dose: 32.0 mg/kg/injection, schedule: Q01DX001 (ip), vehicle: saline with Tween-80); 95 % of control (dose: 32.0 mg/kg/injection, schedule: Q01DX009 (ip), vehicle: saline with Tween-80); 152 % of control (dose: 40.0 mg/kg/injection, schedule: Q04DX003 (ip), vehicle: saline); 195 % of control (dose: 50.0 mg/kg/injection, schedule: Q04DX003 (ip), vehicle: saline with Tween-80); 118 % of control (dose: 64.0 mg/kg/injection, schedule: Q01DX001 (ip), vehicle: saline with Tween-80). Further, the T/C reads like this: (dose: 80.0 mg/kg/injection, schedule: Q04DX003 (ip), vehicle: saline) 110 % of control; under setting [3], 154 % of control.

With `O=[N+]([O-])c1ccc(OCCNS(=O)(=O)c2cccc(S(=O)(=O)F)c2)c(Cl)c1`, the T/C under setting [2] was 104 % of control; the T/C under setting [3] is 97 % of control; the T/C under setting [4] is 88 % of control; the T/C (dose: 200.0 mg/kg/injection, schedule: Q04DX003 (ip), vehicle: saline with Tween-80) is 95 % of control; the T/C (dose: 400.0 mg/kg/injection, schedule: Q01DX009 (ip), vehicle: saline with Tween-80) is 90 % of control; the T/C (dose: 400.0 mg/kg/injection, schedule: Q04DX003 (ip), vehicle: saline with Tween-80) is 101 % of control.

Consider `CN(C)CCCC1(C#N)c2ccccc2CCc2ccccc21`, for which the T/C (dose: 6.25 mg/kg/injection, schedule: Q01DX009 (ip), vehicle: saline) is 102 % of control; the T/C (dose: 12.5 mg/kg/injection, schedule: Q01DX009 (ip), vehicle: saline) was 105 % of control; the T/C (dose: 25.0 mg/kg/injection, schedule: Q01DX009 (ip), vehicle: saline) is 103 % of control; the T/C (dose: 25.0 mg/kg/injection, schedule: Q04DX003 (ip), vehicle: saline) was 100 % of control; the T/C (dose: 50.0 mg/kg/injection, schedule: Q01DX009 (ip), vehicle: saline) was 113 % of control; the T/C (dose: 50.0 mg/kg/injection, schedule: Q04DX003 (ip), vehicle: saline) is 100 % of control. Also, for the setting “dose: 100.0 mg/kg/injection, schedule: Q04DX003 (ip), vehicle: saline”, the T/C is 102 % of control.

Take `COC(=O)CCCN1CC2C=C(C#N)C1C(C(=O)OC)C2` (stereo not given): the T/C runs as follows: (dose: 150.0 mg/kg/injection, schedule: Q01DX001 (ip), vehicle: saline) 93 % of control; (dose: 300.0 mg/kg/injection, schedule: Q01DX001 (ip), vehicle: saline) 93 % of control.
